From patent US11104674B2 (Hoffmann-La Roche Inc., priority 2016, dated 2021)

test system: HBsAg; experiment: HBsAg assay (chemiluminescence immunoassay of secreted HBsAg); format: cell-based, HBV; conditions: Hepatitis B virus, HepG2.2.15, HBsAg secretion, HepG2.2.15 cells, CLIA of culture supernatant
Protocol: HepG2.2.15 cells (Acs et al. Proc Natl Acad Sci USA, 84, (1987), 4641-4), a constitutively HBV-expressing cell line were cultured in DMEM+Glutamax-I medium (Invitrogen, Carlsbad, Calif., USA), supplemented with 10% fetal bovine serum (Invitrogen) and G418 (Invitrogen) at a final concentration of 200 mg/L and maintained in 5% CO2 at 37° C.
HepG2.2.15 cells were seeded in duplicate into white, 96-well plates at 1.5×10^4 cells/well. The cells were treated with a three-fold serial dilution series of the compounds in DMSO. The final DMSO concentration in all wells was 1% and DMSO was used as no drug control.
The HBsAg chemiluminescence immunoassay (CLIA) kit (Autobio Diagnostics Co., Zhengzhou, China, Catalog number: CL0310-2) was used to measure the levels of secreted HBV antigens semi-quantitatively. For the detection 50 μL/well culture supernatant was used and HBsAg was quantified using HBsAg chemiluminescence immunoassay (CLIA) kit (Autobio Diagnostics Co., Zhengzhou, China, Catalog number: CL0310-2), 50 μL of the supernatant was transferred to the CLIA assay plate and 50 μL of enzyme conjugate reagent was added into each well. The plates were sealed and gently agitated for 1 hour at room temperature. The supernatant-enzyme-mixture was discarded and wells were washed 6 times with 300 μL of PBS.
The residual liquid was removed by plating the CLIA plate right side down on absorbent tissue paper. 25 μL of substrates A and B were added to each well. Luminance was measured using a luminometer (Mithras LB 940 Multimode Microplate Reader) after 10 minutes incubation. Dose-response curves were generated and the IC50 value was extrapolated by using the E-WorkBook Suite (ID Business Solutions Ltd., Guildford, UK). The IC50 was defined as the compound concentration (or conditioned media log dilution) at which HBsAg secretion was reduced by 50% compared to the no drug control.
The compounds according to formula I were tested for their capacity to inhibit HBsAg as described herein.

Point of comparison: `CC1c2cnc(-c3ncccn3)nc2CCN1c1cc(N2CCC(F)(F)C2)cc(F)n1` (stereo not shown) [Example 22, 6-[4-(3,3-difluoropyrrolidin-1-yl)-6-fluoro-2-pyridyl]-5-methyl-2-pyrimidin-2-yl-7,8-dihydro-5H-pyrido[4,3-d]pyrimidine], IC50 0.004 µM. Against it:
- CC(=O)N1CCN(c2cc(F)cc(N3CCc4nc(-c5ncccn5)ncc4C3C)n2)CC1 (stereo not shown) [Example 17, 1-[4-[4-fluoro-6-(5-methyl-2-pyrimidin-2-yl-7,8-dihydro-5H-pyrido[4,3-d]pyrimidin-6-yl)-2-pyridyl]piperazin-1-yl]ethanone] — 3.8-fold higher, 0.015 µM
- CC1c2cnc(-c3ccccn3)nc2CCN1c1cc(F)cc(N2CCN(S(C)(=O)=O)CC2)n1 (stereo not shown) [Example 72, 6-[4-fluoro-6-(4-methylsulfonylpiperazin-1-yl)-2-pyridyl]-5-methyl-2-(2-pyridyl)-7,8-dihydro-5H-pyrido[4,3-d]pyrimidine] — 14-fold higher, 0.058 µM
- CC1c2cnc(-c3ncccn3)nc2CCN1c1cc(N2CCC(C(N)=O)CC2)cc(F)n1 (stereo not shown) [Example 56, 1-[2-fluoro-6-(5-methyl-2-pyrimidin-2-yl-7,8-dihydro-5H-pyrido[4,3-d]pyrimidin-6-yl)-4-pyridyl]piperidine-4-carboxamide] — 9.2-fold higher, 0.037 µM
- CC1c2cnc(-c3ncccn3)nc2CCN1c1cc(F)cc(N2CCC2)n1 (stereo not shown) [Example 109, 6-[6-(azetidin-1-yl)-4-fluoro-2-pyridyl]-5-methyl-2-pyrimidin-2-yl-7,8-dihydro-5H-pyrido[4,3-d]pyrimidine] — 5.2-fold higher, 0.021 µM
- CC1c2cnc(-c3ncccn3)nc2CCN1c1cc(N2CCS(=O)(=O)CC2)cc(F)n1 (stereo not shown) [Example 146, 4-[2-Fluoro-6-(5-methyl-2-pyrimidin-2-yl-7,8-dihydro-5H-pyrido[4,3-d]pyrimidin-6-yl)-4-pyridyl]-1,4-thiazinane1,1-dioxide] — 9.5-fold higher, 0.038 µM
- CC1c2cnc(-c3ncccn3)nc2CCN1c1cc(N2CC(O)C2)cc(F)n1 (stereo not shown) [Example 124, 1-[2-Fluoro-6-(5-methyl-2-pyrimidin-2-yl-7,8-dihydro-5H-pyrido[4,3-d]pyrimidin-6-yl)-4-pyridyl]azetidin-3-ol] — 8.2-fold higher, 0.033 µM
- CC1c2cnc(-c3ncccn3)nc2CCN1c1cc(F)cc(N2CCN(S(C)(=O)=O)C(C)C2)n1 (stereo not shown) [Example 105, 6-[4-fluoro-6-(3-methyl-4-methylsulfonyl-piperazin-1-yl)-2-pyridyl]-5-methyl-2-pyrimidin-2-yl-7,8-dihydro-5H-pyrido[4,3-d]pyrimidine] — 5.8-fold higher, 0.023 µM
- CC1CCN(c2cc(F)nc(N3CCc4nc(-c5ncccn5)ncc4C3C)c2)C1=O (stereo not shown) [Example 152, 1-[2-Fluoro-6-(5-methyl-2-pyrimidin-2-yl-7,8-dihydro-5H-pyrido[4,3-d]pyrimidin-6-yl)-4-pyridyl]-3-methyl-pyrrolidin-2-one] — within 1.5-fold, 0.003 µM
- CC1COCCN1c1cc(F)cc(N2CCc3nc(-c4ncccn4)ncc3C2C)n1 (stereo not shown) [Example 41, 4-[4-fluoro-6-(5-methyl-2-pyrimidin-2-yl-7,8-dihydro-5H-pyrido[4,3-d]pyrimidin-6-yl)-2-pyridyl]-3-methyl-morpholine] — 4.2-fold higher, 0.017 µM
- CC1c2cnc(-c3ncccn3)nc2CCN1c1cc(F)cc(N2CC(F)(F)C2)n1 (stereo not shown) [Example 125, 6-[6-(3,3-difluoroazetidin-1-yl)-4-fluoro-2-pyridyl]-5-methyl-2-pyrimidin-2-yl-7,8-dihydro-5H-pyrido[4,3-d]pyrimidine] — 9.5-fold higher, 0.038 µM
- CC1c2cnc(-c3ncccn3)nc2CCN1c1cc(N2CCCC2C(N)=O)cc(F)n1 (stereo not shown) [Example 42, 1-[2-fluoro-6-(5-methyl-2-pyrimidin-2-yl-7,8-dihydro-5H-pyrido[4,3-d]pyrimidin-6-yl)-4-pyridyl]pyrrolidine-2-carboxamide] — 80-fold higher, 0.319 µM
- CC1c2cnc(-c3ncccn3)nc2CCN1c1cc(F)cc(NC2CNC2)n1 (stereo not shown) [Example 120, N-(azetidin-3-yl)-4-fluoro-6-(5-methyl-2-pyrimidin-2-yl-7,8-dihydro-5H-pyrido[4,3-d]pyrimidin-6-yl)pyridin-2-amine] — 8300-fold higher, 33.3 µM
- CC1c2cnc(-c3ncccn3)nc2CCN1c1cc(F)cc(N2CCC(C(N)=O)C2)n1 (stereo not shown) [Example 45, 1-[4-fluoro-6-(5-methyl-2-pyrimidin-2-yl-7,8-dihydro-5H-pyrido[4,3-d]pyrimidin-6-yl)-2-pyridyl]pyrrolidine-3-carboxamide] — 4.5-fold higher, 0.018 µM
- CC1c2cnc(-c3ccccn3)nc2CCN1c1cc(F)cc(N2CCC(C(N)=O)C2)n1 (stereo not shown) [Example 61, 1-[4-fluoro-6-[5-methyl-2-(2-pyridyl)-7,8-dihydro-5H-pyrido[4,3-d]pyrimidin-6-yl]-2-pyridyl]pyrrolidine-3-carboxamide] — 5.5-fold higher, 0.022 µM
- CC1c2cnc(-c3ncccn3)nc2CCN1c1cc(N2CCNC2=O)cc(F)n1 (stereo not shown) [Example 157, 1-[2-Fluoro-6-(5-methyl-2-pyrimidin-2-yl-7,8-dihydro-5H-pyrido[4,3-d]pyrimidin-6-yl)-4-pyridyl]imidazolidin-2-one] — 1.5-fold higher, 0.006 µM
- CC(=O)N1CC(Nc2cc(F)cc(N3CCc4nc(-c5ncccn5)ncc4C3C)n2)C1 (stereo not shown) [Example 139, 1-[3-[[4-fluoro-6-(5-methyl-2-pyrimidin-2-yl-7,8-dihydro-5H-pyrido[4,3-d]pyrimidin-6-yl)-2-pyridyl]amino]azetidin-1-yl]ethanone] — 390-fold higher, 1.55 µM
- CC1c2cnc(-c3ccccn3)nc2CCN1c1cc(N2CCC(C(=O)NS(C)(=O)=O)C2)cc(F)n1 (stereo not shown) [Example 86, 1-[2-fluoro-6-[5-methyl-2-(2-pyridyl)-7,8-dihydro-5H-pyrido[4,3-d]pyrimidin-6-yl]-4-pyridyl]-N-methylsulfonyl-pyrrolidine-3-carboxamide] — 310-fold higher, 1.24 µM
- CC1c2cnc(-c3ncccn3)nc2CCN1c1cc(F)cc(N2CC(NS(C)(=O)=O)C2)n1 (stereo not shown) [Example 118, N-[1-[4-fluoro-6-(5-methyl-2-pyrimidin-2-yl-7,8-dihydro-5H-pyrido[4,3-d]pyrimidin-6-yl)-2-pyridyl]azetidin-3-yl]methanesulfonamide] — 24-fold higher, 0.094 µM
- CC1c2cnc(-c3ncccn3)nc2CCN1c1cc(N2CCOC(C)(C)C2)cc(F)n1 (stereo not shown) [Example 8, 4-[2-fluoro-6-(5-methyl-2-pyrimidin-2-yl-7,8-dihydro-5H-pyrido[4,3-d]pyrimidin-6-yl)-4-pyridyl]-2,2-dimethyl-morpholine] — 2.8-fold higher, 0.011 µM
- CC1c2cnc(-c3ncccn3)nc2CCN1c1cc(N2CCC(C(=O)O)C2)cc(F)n1 (stereo not shown) [Example 38, 1-[2-fluoro-6-(5-methyl-2-pyrimidin-2-yl-7,8-dihydro-5H-pyrido[4,3-d]pyrimidin-6-yl)-4-pyridyl]pyrrolidine-3-carboxylic acid] — 250-fold higher, 1.01 µM
- CC1c2cnc(-c3ncccn3)nc2CCN1c1cc(N2CCOC(C(=O)O)C2)cc(F)n1 (stereo not shown) [Example 26, 4-[2-fluoro-6-(5-methyl-2-pyrimidin-2-yl-7,8-dihydro-5H-pyrido[4,3-d]pyrimidin-6-yl)-4-pyridyl]morpholine-2-carboxylic acid] — 580-fold higher, 2.31 µM
- CC(=O)N1CCN(c2cc(F)nc(N3CCc4nc(-c5ncccn5)ncc4C3C)c2)CC1 (stereo not shown) [Example 16, 1-[4-[2-fluoro-6-(5-methyl-2-pyrimidin-2-yl-7,8-dihydro-5H-pyrido[4,3-d]pyrimidin-6-yl)-4-pyridyl]piperazin-1-yl]ethanone] — 3.5-fold higher, 0.014 µM
- CC1c2cnc(-c3ncccn3)nc2CCN1c1cc(F)cc(N2CCC(NS(C)(=O)=O)CC2)n1 (stereo not shown) [Example 89, N-[1-[4-fluoro-6-(5-methyl-2-pyrimidin-2-yl-7,8-dihydro-5H-pyrido[4,3-d]pyrimidin-6-yl)-2-pyridyl]-4-piperidyl]methanesulfonamide] — 3-fold higher, 0.012 µM
- CCC(=O)N(C)c1cc(F)nc(N2CCc3nc(-c4ncccn4)ncc3C2C)c1 (stereo not shown) [Example 155, N-[2-Fluoro-6-(5-methyl-2-pyrimidin-2-yl-7,8-dihydro-5H-pyrido[4,3-d]pyrimidin-6-yl)-4-pyridyl]-N-methyl-propanamide] — 21-fold higher, 0.086 µM
- CC1C(=O)NCCN1c1cc(F)nc(N2CCc3nc(-c4ncccn4)ncc3C2C)c1 (stereo not shown) [Example 117, 4-[2-fluoro-6-(5-methyl-2-pyrimidin-2-yl-7,8-dihydro-5H-pyrido[4,3-d]pyrimidin-6-yl)-4-pyridyl]-3-methyl-piperazin-2-one] — 26-fold higher, 0.106 µM
- CC(=O)N(C)c1cc(F)nc(N2CCc3nc(-c4ncccn4)ncc3C2C)c1 (stereo not shown) [Example 154, N-[2-Fluoro-6-(5-methyl-2-pyrimidin-2-yl-7,8-dihydro-5H-pyrido[4,3-d]pyrimidin-6-yl)-4-pyridyl]-N-methyl-acetamide] — 17-fold higher, 0.069 µM
- CC1c2cnc(-c3ccccn3)nc2CCN1c1cc(F)cc(N2CCC(C(N)=O)CC2)n1 (stereo not shown) [Example 74, 1-[4-fluoro-6-[5-methyl-2-(2-pyridyl)-7,8-dihydro-5H-pyrido[4,3-d]pyrimidin-6-yl]-2-pyridyl]piperidine-4-carboxamide] — 4.8-fold higher, 0.019 µM
